# Key:
# [1] = system: dorsal raphe 5-HT neurons; test: Inhibitory effect on the firing activity of dorsal raphe 5-HT neurons (extracellular unitary recordings, anesthetized rats); format: in vivo, rat
# Description: The experiments were carried out in male Sprague-Dawley rats (Harlan, Gannat, FRANCE) weighing 250 to 300 g at the day of the experiment and which have been kept under standard laboratory conditions (12:12 light-dark cycle with free access to food and water). The animals were anesthetized with chloral hydrate (400 mg/kg, i.p.). Supplemental doses were given to maintain constant anesthesia and to prevent any nociceptive reaction to a tail pinch.
# Extracellular unitary recordings of dorsal raphe 5-HT neurons were performed with single-barreled glass micropipettes preloaded with fiberglass filaments in order to facilitate filling. The tip was broken back to 2 to 4 μm and filled with a 2M NaCl solution saturated with Blue Chicago dye. The rats (control or treated) were placed in a stereotaxic frame and a burr hole was drilled on the midline 1 mm anterior to lambda. Dorsal raphe 5-HT neurons were encountered over a distance of 1 mm starting immediately below the ventral border of the Sylvius aqueduct. These neurons were identified using the criteria of Aghajanian (Aghajanian, G. K., Essays Neurochem Neuropharmacol 2000, 3: 1-32): a slow (0.5-2.5 Hz) and regular firing rate and long-duration (0.8-1.2 ms) positive action potentials.
# To determine putative synergistic effect of Compound II (2-(6-Fluoro-1H-indol-3-ylsulfanyl)-benzyl]-methyl-amine) on the inhibitory action of 5-HTP (25 mg/kg, i.v.) on the firing activity of dorsal raphe 5-HT neurons, a dose of Compound II corresponding to 20-30% of inhibition, was injected prior to and after the administration of 5-HTP.
# Statistical analysis was performed with SigmaStat for Window version 4.0 software (Jandel Corporation). Average was the mean±SEM. Significance was considered for p<0.05.
# [2] = target: allosteric site of SERT (Homo sapiens, UniProt P31645); test: Dissociation binding studies (3H-escitalopram), allosteric modulation of the serotonin transporter
# Description: Whether a compound operates through an allosteric mechanism can be determined by in vitro dissociation experiments. Dissociation binding experiments measure the “off rate” (koff) for a radioligand of the protein. After radioligand and transporter protein are allowed to bind (i.e. form a complex), then ligand is added to block further binding of radioligand to the transporter so that the rate of dissociation can be measured. Binding (as measured by radioactivity of the radioligand:transporter complex) is measured at various times to determine the rate at which the radioligand dissociates from the transporter. Dissociation rate constants can be used to determine the half-life of the bound complex. Half-life determinations can be used to ascertain whether a compound is an allosteric modulator of the human SERT.
# [3] = target: norepinephrine transporter (NET) (Homo sapiens, UniProt P23975); test: In vitro reuptake inhibitory potency at the norepinephrine transporter; format: biochemical
# [4] = target: T1, serotonin transporter (Rattus norvegicus, UniProt P31652); test: Inhibition of 3H-serotonin uptake in rat brain synaptosomes; format: biochemical; details: 3H-5-HT 10 nM, read-out: uptake inhibitory potency (IC50)
# T1 construct: The P2 fraction (synaptosomal fraction) was obtained by centrifugation; from tissue; host or cells: Male Wistar rat brain (minus cerebellum), P2 synaptosomal fraction
# Description: In order to test compounds at the primary, high-affinity binding site of the serotonin transporter, i.e. determine if a compound is a serotonin reuptake inhibitor, inhibition of the uptake of serotonin (5-HT) was determined.
# By the following method, the inhibition of the uptake of ^3H-serotonin (^3H-5-HT) (10 nM) in rat brain synaptosomes by test compounds was determined in vitro. Exemplary methods, and also results of serotonin uptake for specific SRIs, is described in Hyttel, J., Psychopharmacology 1978, 60:13-18; Hyttel, J., Prog. Neuro-Psychopharmacol. & Biol. Psychait. 1982, 6:277-295; Hyttel, J. & Larsen, Acta Pharmacol. Tox. 1985, 56(suppl. 1):146-153; Sanchez, C. and Hyttel, J. European J. Pharm. […]
# To 400 μl of the synaptosomal suspension (5 mg original tissue) on ice, 100 μl test compound in water was added. […] After shaking for 1 h and storage for 2 h in the dark, the content of radioactivity was determined by liquid scintillation counting (cpm). Uptake was obtained by subtracting the non-specific binding and passive transport measured in the presence of 10 μM […]. The measured cpm was plotted against test compound concentration, and the best fitting s-shaped curve was drawn. The uptake inhibitory potencies are expressed as IC50 values in nM (logarithmic means). Two full concentration-response curves were measured using five concentrations of test compound in triplicate.
# [5] = system: ultrasonic vocalization; details: rat, cited from earlier work
# [6] = target: human serotonin transporter expressed in COS-1 cell membranes (Homo sapiens, UniProt P31645); details: cited from earlier work
# [7] = system: isolation-induced aggression; details: mouse, with subeffective dose of L; cited from earlier work
# T1 sequence (P31652 whole entry): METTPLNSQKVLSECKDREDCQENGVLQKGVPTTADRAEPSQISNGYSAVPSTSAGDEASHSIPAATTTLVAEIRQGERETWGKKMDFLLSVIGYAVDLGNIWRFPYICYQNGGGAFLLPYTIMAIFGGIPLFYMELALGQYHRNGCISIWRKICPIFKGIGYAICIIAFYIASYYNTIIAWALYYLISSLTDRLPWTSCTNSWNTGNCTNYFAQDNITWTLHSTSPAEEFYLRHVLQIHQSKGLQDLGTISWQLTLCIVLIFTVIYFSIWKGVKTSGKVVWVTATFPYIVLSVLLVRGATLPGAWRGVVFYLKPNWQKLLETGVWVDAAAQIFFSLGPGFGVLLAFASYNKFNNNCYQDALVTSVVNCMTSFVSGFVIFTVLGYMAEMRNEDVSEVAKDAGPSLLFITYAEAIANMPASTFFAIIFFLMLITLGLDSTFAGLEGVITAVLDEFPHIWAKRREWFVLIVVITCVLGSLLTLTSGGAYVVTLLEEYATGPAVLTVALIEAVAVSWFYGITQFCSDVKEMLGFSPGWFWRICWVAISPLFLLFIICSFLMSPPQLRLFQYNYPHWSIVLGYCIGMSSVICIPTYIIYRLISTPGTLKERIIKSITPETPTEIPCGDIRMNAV
# allosteric site of SERT, sequence (P31645 whole entry): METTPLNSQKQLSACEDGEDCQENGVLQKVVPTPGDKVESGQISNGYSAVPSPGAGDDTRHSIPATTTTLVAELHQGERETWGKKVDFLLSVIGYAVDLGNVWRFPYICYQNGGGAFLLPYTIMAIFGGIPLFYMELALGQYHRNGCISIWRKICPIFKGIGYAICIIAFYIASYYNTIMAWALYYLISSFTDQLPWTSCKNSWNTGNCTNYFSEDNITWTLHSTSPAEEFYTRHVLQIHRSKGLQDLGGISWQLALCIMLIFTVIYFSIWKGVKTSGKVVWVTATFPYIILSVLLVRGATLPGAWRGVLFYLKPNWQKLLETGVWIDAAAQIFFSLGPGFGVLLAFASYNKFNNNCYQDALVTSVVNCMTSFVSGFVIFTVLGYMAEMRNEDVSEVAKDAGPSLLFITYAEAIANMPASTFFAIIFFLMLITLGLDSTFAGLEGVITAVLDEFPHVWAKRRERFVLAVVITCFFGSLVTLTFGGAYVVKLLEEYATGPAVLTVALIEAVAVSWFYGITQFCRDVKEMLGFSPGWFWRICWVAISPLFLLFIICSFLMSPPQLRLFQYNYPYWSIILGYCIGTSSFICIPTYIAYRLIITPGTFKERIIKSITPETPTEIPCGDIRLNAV
# human serotonin transporter expressed in COS-1 cell membranes, sequence (P31645 whole entry): as above
# norepinephrine transporter (NET), sequence (P23975 whole entry, species assumed): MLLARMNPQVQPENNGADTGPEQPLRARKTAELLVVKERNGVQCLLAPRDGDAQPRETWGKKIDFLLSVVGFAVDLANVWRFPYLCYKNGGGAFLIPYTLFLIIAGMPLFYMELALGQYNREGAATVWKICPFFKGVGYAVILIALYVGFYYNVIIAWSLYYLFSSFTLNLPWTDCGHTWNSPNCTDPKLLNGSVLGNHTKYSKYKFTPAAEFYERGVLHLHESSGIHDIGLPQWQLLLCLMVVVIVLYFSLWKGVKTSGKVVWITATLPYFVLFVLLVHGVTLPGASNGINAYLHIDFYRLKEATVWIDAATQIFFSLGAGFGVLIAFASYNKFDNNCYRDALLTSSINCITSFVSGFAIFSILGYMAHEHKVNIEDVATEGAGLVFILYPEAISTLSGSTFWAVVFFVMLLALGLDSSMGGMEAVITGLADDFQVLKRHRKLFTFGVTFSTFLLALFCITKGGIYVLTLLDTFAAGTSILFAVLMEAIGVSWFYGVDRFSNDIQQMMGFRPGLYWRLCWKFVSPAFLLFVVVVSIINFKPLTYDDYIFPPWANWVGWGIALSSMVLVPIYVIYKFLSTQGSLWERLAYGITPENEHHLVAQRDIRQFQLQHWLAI
compound,measurement,setting,value
"NC(Cc1c[nH]c2ccc(O)cc12)C(=O)O (stereo not drawn) [Compound 5-HTP, 2-amino-3-(5-hydroxy-1H-indol-3-yl)-propanoic acid]",reduction of dorsal raphe 5-HT neuron firing,"[1]; 5-HTP 25 mg/kg i.v. alone (first injection), six rats, mean±SEM",13.4±2.26%
same,further decrease of firing,"[1]; 5-HTP 25 mg/kg injected after Compound II 0.025 mg/kg, six rats",70.53±2.76%
CNCc1ccccc1Sc1c[nH]c2cc(F)ccc12 [Compound II],further decrease of firing,"[1]; Compound II 0.025 mg/kg as second injection after 5-HTP 25 mg/kg, six rats",82.43±2.78%
same,inhibition at 0.025 mg/kg,"[1]; Rattus norvegicus, Neuron, Compound II 0.025 mg/kg alone (first injection), six rats, mean±SEM",24.1 ± 4.98%
same,effect on dissociation rate of 3H-escitalopram,[2],significantly slowed
same,inhibitory effect at NET (in vitro reuptake inhibitory potency),[3],exerts an inhibitory effect
same,IC50,[4],350 pM
CN(C)CCC[C@]1(c2ccc(F)cc2)OCc2cc(C#N)ccc21 [R-citalopram],ultrasonic vocalization compared to controls,[5]; concomitant treatment,significant increase
COc1ccccc1N1CCN(CCN(C(=O)C2CCCCC2)c2ccccn2)CC1 [WAY-100635],effect on spontaneous firing rate of the neuron,[1]; administered after Compound II and 5-HTP,increases the spontaneous firing rate
CNCC[C@H](Oc1cccc2ccccc12)c1cccs1 [duloxetine],stabilizing effect on radioligand:human serotonin transporter complex (dissociation from primary site),[6],little or no stabilizing effect
CN(C)CCC[C@@]1(c2ccc(F)cc2)OCc2cc(C#N)ccc21 [escitalopram],"anxiolytic response to co-treatment with L, 5-HTP","[5]; co-treatment with L, 5-HTP",markedly enhanced
Fc1ccc([C@@H]2CCNC[C@H]2COc2ccc3c(c2)OCO3)cc1 [paroxetine],"antiaggressive effect on co-administration of a subeffective dose of L, 5-HTP",[7],greatly potentiated

# — patent US20100286226A1, “COMBINATION THERAPY RELATED TO SEROTONIN DUAL ACTION COMPOUNDS” (H. LUNDBECK A/S, priority 2007, published 2010)
